We go through 3 compounds from PMC9035832, “Synthesis and Evaluation of a Non-Peptide Small-Molecule Drug Conjugate Targeting Integrin αVβ3” (Frontiers in Chemistry, 2022).

In general, IC50 refers to the concentration that inhibits the measured activity by half.

The subject of data set [1] is WM115 cells. Nature of the data set: Cell viability assay (resazurin based). Particulars: for IC50: 3 days incubation, resazurin, read-out: Cytotoxicity IC50; for fold less cytotoxic than MMAE: relative to free MMAE. On the procedure: (§1) WM115 cells were cultivated in the MEM medium (with 10% fetal bovine serum, 50 μg/ml gentamycin, and 0.5 mM sodium pyruvate) at 37°C and 5.3% CO2-humidified air in an incubator. The cells were seeded in a sterile flat-bottom cell culture 96-well plate (Sarstedt) in a density of 10,000 cells/well (100 µl/well) and incubated for 1 day as described. A serial dilution (1:3 dilution) of the compounds and the standard (cryptophycin-52) in the medium was prepared and transferred to the assay plate (100 µl/well), followed by incubation for 3 days as described. Afterward, a solution of resazurin (175 μM, 30 µl/well) was added, followed by incubation for 6 h. Subsequently, the fluorescence was measured with a TecanReader (Excitation: 530 nm; Emission: 588 nm) and plotted and analyzed using OriginPro® 2020b where the inflection point of a DoseResp fit described the IC50 value. […]
(§2) WM115 cells were cultivated in MEM medium (with 10 % foetal bovine serum, 50 µg/mL gentamycin, 0.5 mM sodium pyruvate) at 37 °C and 5.3 % CO2-humidified air in an incubator. The cells were seeded in a sterile flat-bottom cell culture 96-well plate (Sarstedt) in a density of 10000 cells/well (100 µL/well) and incubated for 1 day as described. A dilution series (1:3 dilution) of the compounds and the standard (cryptophycin-52) in medium was prepared and transferred to the assay plate (100 µL/well) followed by incubation for 3 d as described. Afterwards a solution of resazurin (175 µM, 30 µL/well) was added followed by incubation for 6 h. Subsequently, the fluorescence was measured with a TecanReader (Excitation: 530 nm; Emission: 588 nm) as well as plotted and analysed using OriginPro® 2020b where the inflection point of a DoseResp fit describes the IC50 value.

A further data set relates to M21-L cells. Nature of the data set: Cell adhesion assay on vitronectin, αVβ3-negative cells. Particulars: for IC50: adhesion of M21-L cells to vitronectin, read-out: M21-L (αV−, αVβ3−) IC50, cell adhesion. The data set is classed as cell-based. The procedure:
(§3) WM115 cells were cultivated and used in the MEM Eagle medium (Pan Biotech P04-08500 with 10% fetal bovine serum, 50 μg/ml gentamycin, and 0.5 mM sodium pyruvate) and M21-L cells in the RPMI medium (Pan Biotech P04-16500 with 10% fetal bovine serum, 1% Pen-Strep). A flat-bottom MaxiSorp Nunc 96-well plate was coated with recombinant human vitronectin (100 µl/well, 1 μg/ml, Peprotech) in the PBS buffer (137 mM NaCl, 2.7 mM KCl, 10 mM Na2HPO4, 2 mM KH2PO4, pH 7.4) at 4°C and blocked at the following day by adding a solution of fatty acid free milk powder in PBS buffer (5 w/v %, 100 µl/well) at 4°C. The WM115 and M21-L cells were washed with the PBS buffer, detached with Accutase solution (5 ml, Pan Biotech P10-21100) at 37°C for 5 min, and then diluted with the medium (15 ml). After centrifugation (850 rpm, 6 min), the resulting cell pellet was resuspended with fluorescein diacetate in the medium (fluorescein diacetate 1.5 mg/ml, cell density 5·× 10^5 cells/ml) and incubated for 30 min at 37°C in the dark. The cells were washed twice with the medium and then resuspended in the medium (cell density 5 × 10^5 cells/ml). Afterward, a solution of CaCl2, MnCl2, and MgCl2 (each 100 mM) in the PBS buffer (90 µl) was transferred to the cells and incubated for 30 min on ice in the dark. In the meantime, a dilution series of the compounds in the medium (1:3 dilution) was prepared, and 240 µl were transferred to Eppendorf tubes. Pure medium was used as a positive control. Cell suspension (240 µl) was added to each tube of the dilution series and the control, followed by incubation at 37°C for 30 min in the dark. The assay plate was discharged and washed with 200 µl/well medium. Then the cell suspension with different compound concentrations was added to the assay plate (100 µl/well) and incubated for 60 min at 37°C in the dark. Afterward, the assay plate was washed with the medium (3 × 100 µl/well), and finally, the medium (100 µl/well) was added and the fluorescence was measured with a TecanReader (Excitation: 480 nm; Emission: 520 nm). The determined values were plotted and analyzed using OriginPro® 2020b where the inflection point of a DoseResp fit described the IC50 value.
WM115 cells were cultivated and used in MEM Eagle medium (Pan Biotech P04-08500 with 10 % foetal bovine serum, 50 µg/mL gentamycin, 0.5 mM sodium pyruvate) and M21-L cells in RPMI medium (Pan Biotech P04-16500 with 10 % foetal bovine serum, 1 % Pen-Strep). Overnight a flat-bottom MaxiSorp Nunc 96-well plate was coated with recombinant human vitronectin (100 µL/well, 1 µg/mL, Peprotech) in PBS buffer (137 mM NaCl, 2.7 mM KCl, 10 mM Na2HPO4,2 mM KH2PO4, pH 7.4) at 4 °C and blocked at the following day by adding a solution of fatty acid free milk powder in PBS buffer (5 w/v %, 100 µL/well) at 4 °C. […]

Data set [2] relates to WM115 cells. The data set can be described thus: Cell adhesion assay on vitronectin, αVβ3-positive cells. Format: cell-based. Particulars: adhesion of WM115 cells to vitronectin. On the procedure: as §3, with “Then the cell suspension with different compound concentrations was added to the assay plate (100 µl/well) and incubated for 60 min at 37°C in the dark.” left out, “value. […]” for “value.”

The nature of data set [3]: Cell viability assay (resazurin based). Particulars: WM115 cells, 3 days incubation, resazurin; read-out: Cytotoxicity IC50. On the procedure: as §1, §2
A general note: The colour change of resazurin is a common sign of viable cells or microbes.

Numbered stars: 1 amine (or outer) side, 2 acyl side, 3 side chain; on linkers, the order of the positions; unused ones are H or OH. Bridge positions count the residues as written; N and C are the ends. Square brackets hold non-standard residues; d marks the D form. Peptide text beside a SMILES is read from it. I, II: the chains in the order shown. * marks the point of attachment. Dolaproine = CO[C@@H]([C@@H]1CCCN1)[C@@H](C)C(=O)O; Dil = CC[C@H](C)[C@H](NC)[C@@H](CC(=O)O)OC; X1 = O=C(CCCc1cn(CCOCCOCCN[*:1])nn1)[*:2]; PABC = O=C(OCc1ccc(N[*:1])cc1)[*:2]; X2 = C[C@@H](N*)[C@@H](O)c1ccccc1; Suc = O=C(CCC(=O)[*:2])[*:1]; NMeV = CN[C@H](C(=O)O)C(C)C

Turning to `CC[C@H](C)[C@@H]([C@@H](CC(=O)N1CCC[C@H]1[C@H](OC)[C@@H](C)C(=O)N[C@H](C)[C@@H](O)c1ccccc1)OC)N(C)C(=O)[C@@H](NC(=O)[C@H](C(C)C)N(C)C(=O)OCc1ccc(NC(=O)[C@H](C)NC(=O)[C@@H](NC(=O)[C@H](CCC(=O)O)NC(=O)CCCc2cn(CCOCCOCCNC(=O)CCC(=O)NCCCC[C@@H]3NC(=O)[C@@H](Cc4ccccc4)NC(=O)[C@H](CC(=O)O)NC(=O)CNC(=O)[C@H](CCCNC(=N)N)NC3=O)nn2)C(C)C)cc1)C(C)C` [compound 16], the values for the IC50 in the data set on WM115 cells [1], in the data set on M21-L cells and in the data set with WM115 cells [2] were 91.4 ± 12.3 nM, > 100000 nM and 2650 ± 350 nM, respectively. The “fold less cytotoxic than MMAE” value in the data set with WM115 cells [1] is recorded as “about 50 fold”.

As for `CC[C@H](C)[C@@H]([C@@H](CC(=O)N1CCC[C@H]1[C@H](OC)[C@@H](C)C(=O)N[C@H](C)[C@@H](O)c1ccccc1)OC)N(C)C(=O)[C@@H](NC(=O)[C@H](C(C)C)N(C)C(=O)OCc1ccc(NC(=O)[C@H](C)NC(=O)[C@@H](NC(=O)[C@H](CCC(=O)O)NC(=O)CCCc2cn(CCOCCOCCNC(=O)CCC(=O)NCCCC[C@@H]3NC(=O)[C@@H](Cc4ccccc4)NC(=O)[C@H](CC(=O)O)NC(=O)[C@H](C)NC(=O)[C@H](CCCNC(=N)N)NC3=O)nn2)C(C)C)cc1)C(C)C` [compound 17] (I: [X1]EVA[PABC][NMeV]V[Dil][Dolaproine]-X2 / II: cyclo(AD[dF]KR); linker I:N-II:4 via Suc), the IC50 in the data set with WM115 cells [1] is 264 ± 24.6 nM; in the data set on M21-L cells it was > 100000 nM; with WM115 cells [2], 79100 ± 1690 nM. Moreover, the “fold less cytotoxic than MMAE” value with WM115 cells [1] amounted to 150 fold.

Consider `CC[C@H](C)[C@@H]([C@@H](CC(=O)N1CCC[C@H]1[C@H](OC)[C@@H](C)C(=O)N[C@H](C)[C@@H](O)c1ccccc1)OC)N(C)C(=O)[C@@H](NC(=O)[C@H](C(C)C)N(C)C(=O)OCc1ccc(NC(=O)[C@H](C)NC(=O)[C@@H](NC(=O)[C@H](CCC(=O)O)NC(=O)CCCc2cn(CCOCCOCCOc3ccc(C(=O)N[C@@H](Cc4ccc(OCCCCCNC5=NCCN5)cc4)C(=O)O)cc3)nn2)C(C)C)cc1)C(C)C` [compound 18], for which the “TI (RAD/RGD), targeting index” value with WM115 cells [1] (TI = [IC50 (17)]/[IC50 (compound)]) is given as 2.8. For the same compound, the “fold less cytotoxic than MMAE” value in the data set with WM115 cells [1] is recorded as “about 50 fold”. Further, the IC50 in data set [3] was 95 ± 25 nM; in the data set on M21-L cells, > 100000 nM; in the data set on WM115 cells [2] it was 8050 ± 510 nM. Further, in the data set with M21-L cells (M21-L cell line, adhesion to vitronectin), the “effect on cell adhesion of αVβ3-negative cells” value is “no effect”.
